Article PMC7230232, “Secondary Metabolites from the Culture of the Marine-derived Fungus Paradendryphiella salina PC 362H and Evaluation of the Anticancer Activity of Its Metabolite Hyalodendrin” (Marine Drugs, 2020)
Values joined by “and” are separate entries in the source; they are usually repeats but may differ in a detail not shown here. Equal entries are not always repeated. Where two headings read alike, the source gives them in different places.

Tests used:
LOVO = assay: MTT cell viability assay, LOVO; type: cell-based; conditions: Homo sapiens, colon
Experimental: (§1) Cellular viability was determined by the MTT (methylthiazolyldiphenyl-tetrazolium bromide) assay. Briefly, cells were exposed to the indicated concentrations of crude extracts or compounds 1–4 for five doubling times and then incubated for 3 h at 37 °C with MTT. Formazan crystals were then dissolved in DMSO and optical density measured at 570 nm in a microplate reader. The half-maximal inhibitory concentration (IC50) was determined. Values given for crude extracts are averages of at least two experiments done in duplicate. IC50 values calculated for the four isolated compounds and the commercially available 4-hydroxy-tamoxifen (Sigma-Aldrich) are averages of at least three experiments done in duplicate.

[1] = molecular target: T1, NADPH-dependent thioredoxin reductase (Trr1) (Saccharomyces cerevisiae, UniProt P29509); assay: In vitro reduction by NADPH thioredoxin reductase alone (NADPH consumption); type: biochemical; conditions: yeast NTR (Trr1) alone, versus ACN control
T1 construct: made in house
T1 sequence (P29509 whole entry): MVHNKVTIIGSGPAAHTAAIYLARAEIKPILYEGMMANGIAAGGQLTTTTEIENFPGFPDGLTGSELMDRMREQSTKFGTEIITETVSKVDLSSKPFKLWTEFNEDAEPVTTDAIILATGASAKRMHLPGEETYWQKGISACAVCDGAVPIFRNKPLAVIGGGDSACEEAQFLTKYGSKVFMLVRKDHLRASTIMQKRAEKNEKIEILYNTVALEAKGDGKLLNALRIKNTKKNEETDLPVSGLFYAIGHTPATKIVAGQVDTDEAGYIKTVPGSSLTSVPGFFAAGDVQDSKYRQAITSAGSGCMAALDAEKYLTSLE
Experimental: Thioredoxin 1 (Trx1) and NADPH-dependent thioredoxin reductase (Trr1) from Saccharomyces cerevisiae were cloned and produced as described previously. Thioredoxin activity was measured spectrophotometrically (Uvikon XS; Secomam) in 1 mL cuvette by following NADPH consumption at 340 nm over 2 min. The reaction was performed in 100 µM NADPH, 246 nM of Trr1 in 30 mM Tris-HCl buffer (pH 7.9) and in the presence or not of 65 nM of Trx1. The reaction was initiated by adding 10 µL of 50 mM of 3 in acetonitrile or 10 µL of acetonitrile (ACN, Control experiment). For each condition, NADPH consumption experiments were performed in triplicate and results were represented as the mean ± SD. The significance of the results was evaluated by Student’s t-test.

HeLa = assay: MTT cell viability assay, HeLa; type: cell-based; conditions: Homo sapiens, cervix
Experimental: as §1

MCF7 cells = assay: MTT cell viability assay, MCF7; type: cell-based, human; conditions: Homo sapiens
Experimental: as §1

HT29 = assay: MTT cell viability assay, HT29; type: cell-based; conditions: Homo sapiens, HT-29; colon
Experimental: as §1

3T3-F442A cells = assay: MTT cell viability assay, 3T3-F442A pre-adipocytes; type: cell-based, murine; conditions: Mus musculus
Experimental: as §1

HCT116 SN-38 = assay: MTT cell viability assay, HCT116 SN-38; type: cell-based; conditions: Homo sapiens, HCT-116; colon; SN-38 resistant
Experimental: as §1

[2] = molecular target: cytoplasmic GAPDH from Arabidopsis thaliana (AtGAPDH) (Arabidopsis thaliana, UniProt P25858); assay: Covalent adduct formation with GAPDH by MALDI-TOF mass spectrometry; type: binding; conditions: data not shown
Chain of cytoplasmic GAPDH from Arabidopsis thaliana (AtGAPDH) (P25858 whole entry): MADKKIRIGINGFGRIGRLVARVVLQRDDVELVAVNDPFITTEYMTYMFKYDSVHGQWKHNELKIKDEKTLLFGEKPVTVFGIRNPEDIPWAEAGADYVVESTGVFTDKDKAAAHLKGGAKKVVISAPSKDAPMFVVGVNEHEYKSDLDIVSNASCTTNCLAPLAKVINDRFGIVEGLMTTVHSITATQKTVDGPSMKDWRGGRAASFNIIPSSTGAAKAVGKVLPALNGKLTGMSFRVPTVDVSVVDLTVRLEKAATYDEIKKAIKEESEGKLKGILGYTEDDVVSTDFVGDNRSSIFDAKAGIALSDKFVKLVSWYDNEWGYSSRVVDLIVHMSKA
Description: Compound 3 is a member of the epidithiodioxopiperazines, a class of natural products characterized by a sulfur-bridged dioxopiperazine that is believed to play an important role in their biological activity. […] The role of the sulfur-bridged dioxopiperazine in the activity of epidithiodioxopiperazines has been attributed to two main mechanisms: (1) mixed disulfide formation with proteins and (2) production of reactive oxygen species (ROS) upon the formation of the disulfide bond after reduction by a cellular reductant. […] To test whether 3 might act through these two processes, we first assessed its propensity to form in vitro covalent adducts with the glycolytic glyceraldehyde-3-phosphate dehydrogenase enzyme (GAPDH). GAPDH is a widely used model protein to study molecular mechanism of thiol-based post-translational modifications as its catalytic cysteine is prone to multiple reversible and irreversible oxidation states. […] Trxs are small ubiquitous thiol/disulfide oxidoreductases with multiple recognized roles in cellular processes and human diseases including cancers. However, since mammal NTR is a selenoprotein that is not easily produced recombinantly, we used here the thioredoxin system from the eukaryotic yeast Saccharomyces cerevisiae (Figure 6). […]

`CN1C(=O)[C@@]2(Cc3ccccc3)SS[C@]1(CO)C(=O)N2C` [Compound 3, (3R, 6R) Hyalodendrin] was tested, and the IC50 (LOVO) was 73.4 ± 16.4 nM, the NADPH consumption increase [1] was “ca. three” and the IC50 (HeLa) was 69 ± 9.9 nM. For the same compound, the IC50 (MCF7 cells; MCF7, read-out: IC50 MCF7, breast, epithelial) was 216 ± 6 nM, the IC50 (MCF7 cells; MCF7, read-out: IC50 MCF7, pure compounds, MTT) was 0.07 µg/mL and 220 nM and the IC50 (HT29) was 58 ± 13.7 nM. The IC50 (3T3-F442A cells; read-out: IC50 3T3-F442A) was 0.099 µg/mL and 300 nM, the IC50 (3T3-F442A cells; read-out: IC50 3T3F442A) was 305 ± 4.2 nM and the IC50 (HCT116 SN-38) was 43.8 ± 4.2 nM. The “mixed disulfide formation with catalytic cysteine of AtGAPDH (mass shift)” value [2] was “not able to form a mixed disulfide”.
